Source: PMC5557901, “Cell surface binding, uptaking and anticancer activity of L-K6, a lysine/leucine-rich peptide, on human breast cancer MCF-7 cells” (Scientific Reports, 2017)
Read-outs that look alike come from different tables or passages of the source. Peptide text beside a SMILES is read from it.

Tests used:
Format in all cases: cell-based, human
[1] = test system: various cancer cell lines; test: MTT cytotoxicity assay, various cancer cell lines; conditions: Fig. 1a
Text: Eleven human cancer cell lines (including MCF-7 breast carcinoma, Bcap-37 breast carcinoma, MDA-MB-231 breast adenocarcinoma, HeLa cervical carcinoma, BGC-823 gastric carcinoma, A375 melanoma, NCI-H446 small cell lung carcinoma, HO-8910 ovarian carcinoma, SMMC-7721 hepatocellular carcinoma, LK-2 lung squamous cells carcinoma, and BEL-7402 hepatocellular carcinoma) were obtained from the CBCAS (Cell Bank of the Chinese Academy of Sciences, Shanghai, China). Human HaCaT keratinocytes were obtained from KeyGEN Biotech (Nanjing, China). Cells were routinely cultured in RPMI 1640 or L15 or DMEM containing 10% neonatal bovine serum (NBS) or fetal bovine serum (FBS), 1% l-glutamine, 1% sodium pyruvate, 50 U/mL penicillin and 50 μg/mL streptomycin. The cells were maintained at 37 °C in a humidified atmosphere of 5% CO2.
Cell viability was detected by MTT assay. The cells were seeded at 5 × 10^3 cells/well in 96-well plates 24 h before the peptide treatment. After 1, 6, 24, or 48 h of incubation with various concentrations of peptides (20–100 µM), 10 μL of the 5 mg/mL MTT solution was added to each well and incubated for additional 4 h. The purple-blue MTT formazan precipitate was dissolved in 150 μL of DMSO. The absorbance was determined using a microplate reader at 490 nm. […] The data were expressed as a percentage of the inhibition rate for the viable cells. […]

[2] = test system: HaCaT cells; test: MTT cytotoxicity assay, non-cancerous HaCaT cells; conditions: 1-hour peptide exposure
Method: (§1) Cell viability was detected by MTT assay. The cells were seeded at 5 × 10^3 cells/well in 96-well plates 24 h before the peptide treatment. After 1, 6, 24, or 48 h of incubation with various concentrations of peptides (20–100 µM), 10 μL of the 5 mg/mL MTT solution was added to each well and incubated for additional 4 h. The purple-blue MTT formazan precipitate was dissolved in 150 μL of DMSO. The absorbance was determined using a microplate reader at 490 nm. The experiments were performed in triplicate. The data were expressed as a percentage of the inhibition rate for the viable cells. For the thermo-sensitivity test, MCF-7 cells were treated with L-K6 at 4 °C or 37 °C for 30 min and then subjected to the MTT assay. For energy-dependent assay, the L-K6-treated MCF-7 cells were pre-incubated with 40 μM NaN3 for 30 min[39] and then subjected to the MTT assay. All experiments had been performed in triplicate.

[3] = test system: MCF-7 cells; test: Cellular uptake by confocal microscopy, MCF-7 cells; conditions: FITC-labeled L-K6, confocal microscopy, after 5 min of peptide exposure
Method: (§2) MCF-7 or HaCaT cells were incubated with various concentrations of FITC-labeled L-K6 for 5, 10 or 60 min. Myelin and other lipophilic areas on cell membrane were stained with the red-orange fluorescent tracker DiI. The FITC-labeled peptides were traced and recorded at each time point using confocal microscopy.

[4] = test system: HaCaT cells; test: Cellular uptake by confocal microscopy, HaCaT cells; conditions: FITC-labeled L-K6, confocal microscopy, 1-hour exposure
Method: as §2

[5] = test system: MCF-7 cells
Method: as §1

Row | Cellular uptake into MCF-7 cells [3] | Cellular uptake into HaCaT cells [4] | IC50 ([5]; 1 h) | IC50 ([5]; 6 h) | IC50 ([5]; 24 h) | IC50 ([5]; 48 h) | Structure (SMILES) | Cytotoxicity on cancer cell lines relative to L-K6 (MTT) [1] | Toxicity against normal HaCaT cells (MTT) [2]
1 |  |  |  |  |  |  | CC[C@H](C)[C@H](N)C(=O)N[C@@H](CCCCN)C(=O)N[C@@H](CCCCN)C(=O)N[C@H](C(=O)N[C@H](C(=O)N[C@@H](CO)C(=O)N[C@@H](CCCCN)C(=O)N[C@H](C(=O)N[C@@H](CCCCN)C(=O)N[C@@H](CCCCN)C(=O)N[C@@H](CC(C)C)C(=O)N[C@@H](CC(C)C)C(N)=O)[C@@H](C)CC)C(C)C)[C@@H](C)CC [L-K5 V1] (H-IKKIVSKIKKLL-NH2) | dramatically weakened this cytotoxicity | 
2 |  |  |  |  |  |  | CC[C@H](C)[C@H](N)C(=O)N[C@@H](CCCCN)C(=O)N[C@@H](CCCCN)C(=O)N[C@H](C(=O)N[C@H](C(=O)N[C@@H](CO)C(=O)N[C@@H](CCCCN)C(=O)N[C@H](C(=O)N[C@@H](CCCCN)C(=O)N[C@@H](CCCCN)C(=O)N[C@@H](CC(C)C)C(=O)N[C@@H](CC(C)C)C(=O)N[C@@H](CCCCN)C(N)=O)[C@@H](C)CC)C(C)C)[C@@H](C)CC [L-K6 V1] (H-IKKIVSKIKKLLK-NH2) | dramatically weakened this cytotoxicity | 
3 | rapidly internalize into cells | negligible cellular uptake | 38 µM | 34 µM | 31 µM | 23 µM | CC[C@H](C)[C@H](N)C(=O)N[C@@H](CCCCN)C(=O)N[C@@H](CCCCN)C(=O)N[C@H](C(=O)N[C@@H](CC(C)C)C(=O)N[C@@H](CO)C(=O)N[C@@H](CCCCN)C(=O)N[C@H](C(=O)N[C@@H](CCCCN)C(=O)N[C@@H](CCCCN)C(=O)N[C@@H](CC(C)C)C(=O)N[C@@H](CC(C)C)C(=O)N[C@@H](CCCCN)C(N)=O)[C@@H](C)CC)[C@@H](C)CC [L-K6] (H-IKKILSKIKKLLK-NH2) |  | minimum toxicity
